According to patent US12383510B2 (Starton Therapeutics, Inc., priority 2020, dated 2025):
Entries after “also recorded” stand apart in the source; their conditions may differ. Marks after values point to notes of the source that are not given here.

Legend:
clinical = details: human, plasma, oral
[1] = tested on: healthy female volunteers; assay: Phase 1 study: antiemetic effect of oral olanzapine doses following apomorphine challenge on day 8; type: in vivo, human; details: for Nausea Score 1-120 min.: apomorphine 0.05 mg/kg, scale 1=no nausea, 10=severe nausea
Description: Twenty-four healthy female volunteers were enrolled. Four active-treatment groups and a cohort of placebo-treated subjects were evaluated.
Subjects were administered study drug once daily for 8 days. During this period, subjects maintained a study diary of their side effects. The subject diary was used to collect on a daily basis any adverse events including an assessment of the presence and/or intensity of sedation on a numeric scale where 1=no sedation and 10=excessive sedation.
On the 8th day, subjects were administered apomorphine at a dose of 0.05 mg/kg and assessed over 6 hours. During this period, subjects were asked to record episodes of nausea on a numeric scale every 15 minutes for the duration of assessment. The intensity of nausea was captured using a 1-10 rating scale where 1=no nausea and 10=severe nausea. Emesis intensity was also captured where 1=no emesis and 10=severe emesis. Episodes of retching or emesis were collected and measured for the absolute number of retches or vomits during the collection period and documented for the time of the specific event following the administration of the apomorphine.

[2] = oral olanzapine 2 mg a day, apomorphine challenge
[3] = oral olanzapine 4 mg a day, apomorphine challenge
[4] = oral olanzapine 6 mg a day, apomorphine challenge
[5] = oral olanzapine 8 mg a day, apomorphine challenge

Cc1cc2c(s1)Nc1ccccc1N=C2N1CCN(C)CC1 [olanzapine, 2-methyl-10-(4-methyl-1-piperazinyl)-4H-thieno-[2,3-b][1,5]benzo-diazepine]
concentration at 1 day (clinical; 4 mg a day): 5 ng/mL
concentration at 1 day (clinical; 6 mg a day): 8 ng/mL
Nausea severity scores during 0-120 min following apomorphine challenge, comparison with placebo ([1]; 2 mg olanzapine steady state dose): not significantly different than placebo
Nausea severity scores during 0-120 min following apomorphine challenge, comparison with placebo ([1]; 4 mg olanzapine steady state dose, p<0.05): significantly different than placebo
Maximum intensity of nausea, comparison between doses ([1]; 4 mg, 6 mg and 8 mg dose, apomorphine challenge): no different
Nausea severity scores during 0-120 min following apomorphine challenge, comparison with placebo ([1]; 6 mg olanzapine steady state dose, p<0.05): significantly different than placebo
Nausea severity scores during 0-120 min following apomorphine challenge, comparison with placebo ([1]; 8 mg olanzapine steady state dose): not different from the placebo control; also recorded: not significantly different than placebo
Nausea Score 1-120 min. ([1]; oral olanzapine 2 mg a day for 8 days): 6**
Nausea Score 1-120 min. (severity in words) [1, 2]: Moderate
Retching (incidence) [1, 2]: 40%
Vomiting (incidence) [1, 2]: 40%
Nausea Score 1-120 min. ([1]; oral olanzapine 4 mg a day for 8 days): 3.4 #
Nausea Score 1-120 min. (severity in words) [1, 3]: Mild
Retching (incidence) [1, 3]: 0%
Vomiting (incidence) [1, 3]: 20%
Nausea Score 1-120 min. ([1]; oral olanzapine 6 mg a day for 8 days): 3.7 #
Nausea Score 1-120 min. (severity in words) [1, 4]: Mild
Retching (incidence) [1, 4]: 0%
Vomiting (incidence) [1, 4]: 0%
Nausea Score 1-120 min. ([1]; oral olanzapine 8 mg a day for 8 days): 5**
Nausea Score 1-120 min. (severity in words) [1, 5]: Mild
Retching (incidence) [1, 5]: 20%
Vomiting (incidence) [1, 5]: 20%
